Data on nine molecules can be found in patent US11155849B2, “IMP-producing microorganism and method of producing IMP using the same” (CJ CHEILJEDANG CORPORATION, priority 2017, dated 2021).

One experiment relates to ATCC6872. Kind of experiment: Resistance/susceptibility of strain ATCC6872 to substances (minimal medium, 1.7% agar). The experiment is classed as cell-based, Corynebacterium stationis. An excerpt: (§1) ATCC6872 (10^7 cells/mL to 10^8 cells/mL) was suspended in a phosphate buffer (pH 7.0) or in a citrate buffer (pH 5.5) in order to prepare an ATCC6872-derived IMP-producing strain, and then mutation was induced by UV treatment. The resultants were washed twice with a 0.85% saline solution, and then diluted and smeared on a medium containing an appropriate concentration of a substance to be resistant to a minimal medium containing 1.7% agar. Thereafter, colonies were obtained. Each colony was cultured in a nutrient medium and cultured in a seed medium for 24 hours. After 3 to 4 days of culturing in a fermentation medium, colonies with the highest amount of IMP accumulated in the culture medium were selected. In order to produce a high-concentration IMP producing-strain, and to provide adenine auxotrophy, guanine leakage, lysozyme susceptibility, 3,4-dihydroproline resistance, streptomycin resistance, azetidine carboxylic acid resistance, thiaproline resistance, azaserine resistance, sulfaguanidine resistance, norvaline resistance, and trimethoprim resistance, the procedures above were performed sequentially for each substance.
(§2) The compositions of the media are as follows: • Minimal medium: 2% glucose, 0.3% sodium sulfate, 0.1% […], 0.3% K2HPO4, 0.3% magnesium sulfate, calcium chloride (10 mg/L), iron sulfate (10 mg/L), zinc sulfate (1 mg/L), manganese chloride (3.6 mg/L), L-cysteine (20 mg/L), calcium pantothenate (10 mg/L), thiamine hydrochloride (5 mg/L), biotin (30 μg/L), adenine (20 mg/L), guanine (20 mg/L), pH 7.3 • Nutrient medium: 1% peptone, 1% meat juice, 0.25% sodium chloride, 1% yeast extract, 2% agar, pH 7.2 • Seed medium: 1% glucose, 1% peptone, 1% meat juice, 1% yeast extract, 0.25% sodium chloride, adenine (100 mg/L), guanine (100 mg/L), pH 7.5 • Fermentation medium: 0.1% sodium glutamate, 1% ammonium chloride, 1.2% magnesium sulfate, 0.01% calcium chloride, iron sulfate (20 mg/L), manganese sulfate (20 mg/L), zinc sulfate (20 mg/L), copper sulfate (5 mg/L), L-cysteine (23 mg/L), alanine (24 mg/L), nicotinic acid (8 mg/L), biotin (45 μg/L), thiamin hydrochloride (5 mg/L), adenine (30 mg/L), 1.9% phosphoric acid (85%), 2.55% glucose, 1.45% fructose

A further experiment concerns CJI0323. It is filed as cell-based, Corynebacterium stationis. The settings on record: strain CJI0323.
Text: as §1, §2

Consider Lysozyme, for which the Lysozyme susceptibility in the experiment on ATCC6872 stood at 80 µg/mL; with CJI0323, 8 µg/mL.

With `O=C(O)[C@@H]1CSCN1` [Thiaproline], the resistance in the experiment on ATCC6872 amounted to 10 µg/mL; in the experiment with CJI0323, 100 µg/mL.

As to `COc1cc(Cc2cnc(N)nc2N)cc(OC)c1OC` [Trimethoprim], the resistance is 20 µg/mL with ATCC6872 and 100 µg/mL with CJI0323.

In the case of `O=C(O)[C@@H]1CCN1` [Azetidine carboxylic acid], the resistance with ATCC6872 is 5000 µg/mL; in the experiment with CJI0323 it was 30000 µg/mL.

For the molecule `[H]/N=C(/N)NS(=O)(=O)c1ccc(N)cc1` [Sulfaguanidine], the resistance came out at 50 µg/mL in the experiment with ATCC6872 and 200 µg/mL in the experiment with CJI0323.

Consider `[N-]=[N+]=CC(=O)OC[C@H](N)C(=O)O` [Azaserine], for which the results for the resistance in the experiment with ATCC6872 and in the experiment with CJI0323 were 25 µg/mL and 100 µg/mL, respectively.

With `CCC[C@H](N)C(=O)O` [Norvaline], the resistance in the experiment on ATCC6872 is 200 µg/mL; with CJI0323, 2000 µg/mL.

Take `O=C(O)C1C=CCN1` (stereo not drawn) [3,4-Dihydroproline]: the figures for the resistance in the experiment on ATCC6872 and in the experiment with CJI0323 were 1000 µg/mL and 3500 µg/mL, respectively.

For the molecule `[H]/N=C(/N)N[C@H]1[C@H](O)[C@@H](O)[C@H](O[C@@H]2O[C@@H](C)[C@](O)(C=O)[C@H]2O[C@@H]2O[C@@H](CO)[C@H](O)[C@@H](O)[C@@H]2NC)[C@@H](N/C(N)=N\[H])[C@@H]1O` [Streptomycin], the resistance came out at 500 µg/mL in the experiment on ATCC6872 and 2000 µg/mL in the experiment on CJI0323.
